Assay results published in patent US12310929B2, “Use of rasagiline for the treatment of restless legs syndrome” (TEVA PHARMACEUTICAL INDUSTRIES, LTD., priority 2006, dated 2025).
Read-outs that look alike come from different tables or passages of the source.

Legend:
RLS subjects [1] = settings: for IRLS QoL Total (Absolute Change) Mean / IRLS QoL Total (Absolute Change) Median / IRLS QoL Total (Percent Change) Mean / IRLS QoL Total (Percent Change) Median / IRLS QoL Total Mean / IRLS QoL Total Median: rasagiline 1 mg/day oral
Method: (§1) This was the first clinical study in which rasagiline was administered to RLS subjects. The dosage regimen of 1 mg/day rasagiline was chosen based on the optimal dosage regimen for the symptomatic treatment of PD. […] Therefore, in the event that a subject could not tolerate the 1 mg daily dose of rasagiline, a daily dose of 0.5 mg rasagiline was permitted. Rasagiline was administered orally as a tablet. Both the 1 mg and 0.5 mg rasagiline tablets were beveled round tablets, flat, white to off-white, scored on one side, plain on the other side. Teva Pharmaceutical Industries Ltd. was responsible for the manufacture and primary packaging of study medications according to current Good Manufacturing Practice (cGMP) principles and guidelines applicable to investigational medicinal products.
The Restless Leg Syndrome Quality of Life questionnaire (RLS QoL) assesses the impact of RLS on daily life, emotional well-being, social life and work life. It is an 18-item questionnaire with a total score ranging 0 to 100. […] The lower the score, the greater the impact of RLS on quality of life.
The RLS QoL questionnaire was completed by the investigator at the baseline and Week 4, and 8 visits. The change from baseline to each post-baseline study visit was calculated as an additional efficacy endpoint.

RLS subjects [2] = settings: for IRLS Total (Absolute Change) Mean / IRLS Total (Absolute Change) Median / IRLS Total (Percent Change) Mean / IRLS Total (Percent Change) Median / IRLS Total Mean / IRLS Total Median: rasagiline 1 mg/day oral
Method: as §1
IRLS (International Restless Legs Scale)
The IRLS scale is comprised of 10 items designed to assess the severity of sensory and motor symptoms, sleep disturbance, daytime somnolence, and impact on activities of daily living and mood associated with RLS. All items receive a grade in the range 0 to 4 (0=absence of a problem, 4=very severe problem) giving a maximum score of 40.
The investigator scored subjects on the IRLS at all scheduled study visits. The primary efficacy endpoint was based on the change from baseline to weeks 2, 4, and 8 in IRLS scores.
Each of 10 items were graded on a scale between 0 and 4 where 0 denotes the absence of a problem, and 4 a very severe problem.

C#CCN[C@@H]1CCc2ccccc21 [rasagiline, R-(+)-N-propargyl-1-aminoindan]
IRLS QoL Total (Absolute Change) Mean (RLS subjects [1]; VISIT WEEK 4, N=2): 16.67
IRLS QoL Total (Absolute Change) Median (RLS subjects [1]; VISIT WEEK 4, N=2): 16.67
IRLS QoL Total (Percent Change) Mean (RLS subjects [1]; VISIT WEEK 4, N=2): 35.19%
IRLS QoL Total (Percent Change) Median (RLS subjects [1]; VISIT WEEK 4, N=2): 35.19%
IRLS QoL Total Mean (RLS subjects [1]; VISIT WEEK 4, N=2): 62.92
IRLS QoL Total Median (RLS subjects [1]; VISIT WEEK 4, N=2): 62.92
IRLS QoL Total (Absolute Change) Mean (RLS subjects [1]; VISIT WEEK 8, N=1): 25.00
IRLS QoL Total (Absolute Change) Median (RLS subjects [1]; VISIT WEEK 8, N=1): 25.00
IRLS QoL Total (Percent Change) Mean (RLS subjects [1]; VISIT WEEK 8, N=1): 37.04%
IRLS QoL Total (Percent Change) Median (RLS subjects [1]; VISIT WEEK 8, N=1): 37.04%
IRLS QoL Total Mean (RLS subjects [1]; VISIT WEEK 8, N=1): 92.50
IRLS QoL Total Median (RLS subjects [1]; VISIT WEEK 8, N=1): 92.50
improvement in the IRLS Quality of Life Questionnaire compared to baseline (RLS subjects [1]; by eight weeks, remaining subject): 37%
IRLS Total (Absolute Change) Mean (RLS subjects [2]; VISIT WEEK 1, N=2): −3.00
IRLS Total (Absolute Change) Median (RLS subjects [2]; VISIT WEEK 1, N=2): −3.00
IRLS Total (Percent Change) Mean (RLS subjects [2]; VISIT WEEK 1, N=2): −11.54%
IRLS Total (Percent Change) Median (RLS subjects [2]; VISIT WEEK 1, N=2): −11.54%
IRLS Total Mean (RLS subjects [2]; VISIT WEEK 1, N=2): 29.00
IRLS Total Median (RLS subjects [2]; VISIT WEEK 1, N=2): 29.00
IRLS Total (Absolute Change) Mean (RLS subjects [2]; VISIT WEEK 3, N=1): −14.00
IRLS Total (Absolute Change) Median (RLS subjects [2]; VISIT WEEK 3, N=1): −14.00
IRLS Total (Percent Change) Mean (RLS subjects [2]; VISIT WEEK 3, N=1): −53.85%
IRLS Total (Percent Change) Median (RLS subjects [2]; VISIT WEEK 3, N=1): −53.85%
IRLS Total Mean (RLS subjects [2]; VISIT WEEK 3, N=1): 12.00
IRLS Total Median (RLS subjects [2]; VISIT WEEK 3, N=1): 12.00
IRLS Total (Absolute Change) Mean (RLS subjects [2]; VISIT WEEK 4, N=2): −6.50
IRLS Total (Absolute Change) Median (RLS subjects [2]; VISIT WEEK 4, N=2): −6.50
IRLS Total (Percent Change) Mean (RLS subjects [2]; VISIT WEEK 4, N=2): −25.00%
IRLS Total (Percent Change) Median (RLS subjects [2]; VISIT WEEK 4, N=2): −25.10%
IRLS Total Mean (RLS subjects [2]; VISIT WEEK 4, N=2): 25.50
IRLS Total Median (RLS subjects [2]; VISIT WEEK 4, N=2): 25.50
mean IRLS Rating Scale score (RLS subjects [2]; after 2 weeks, 2 subjects, baseline mean 32): 29
IRLS Rating Scale score (RLS subjects [2]; at 4 weeks, one subject): 13
decrease from baseline in IRLS Rating Scale score (RLS subjects [2]; at 4 weeks, one subject): 50%
IRLS score (RLS subjects [2]; by 8 weeks, remaining subject): 12
decrease from baseline in IRLS score (RLS subjects [2]; by 8 weeks, remaining subject): 54%
effect on the symptoms of RLS (RLS subjects [2]; in at least a subset of RLS patients): clinically significant effect
IRLS Rating Scale score (RLS subjects [2]; week 4, subject who discontinued, unchanged from baseline): 38
